In ChEMBL document CHEMBL5058646 (2022):

Experiments:
[1] = biological target: T1, Telomere zinc finger-associated protein (Homo sapiens) (UniProt P10074); conditions: SUD4, Compound concentration 1.0 uM
T1 sequence (whole entry): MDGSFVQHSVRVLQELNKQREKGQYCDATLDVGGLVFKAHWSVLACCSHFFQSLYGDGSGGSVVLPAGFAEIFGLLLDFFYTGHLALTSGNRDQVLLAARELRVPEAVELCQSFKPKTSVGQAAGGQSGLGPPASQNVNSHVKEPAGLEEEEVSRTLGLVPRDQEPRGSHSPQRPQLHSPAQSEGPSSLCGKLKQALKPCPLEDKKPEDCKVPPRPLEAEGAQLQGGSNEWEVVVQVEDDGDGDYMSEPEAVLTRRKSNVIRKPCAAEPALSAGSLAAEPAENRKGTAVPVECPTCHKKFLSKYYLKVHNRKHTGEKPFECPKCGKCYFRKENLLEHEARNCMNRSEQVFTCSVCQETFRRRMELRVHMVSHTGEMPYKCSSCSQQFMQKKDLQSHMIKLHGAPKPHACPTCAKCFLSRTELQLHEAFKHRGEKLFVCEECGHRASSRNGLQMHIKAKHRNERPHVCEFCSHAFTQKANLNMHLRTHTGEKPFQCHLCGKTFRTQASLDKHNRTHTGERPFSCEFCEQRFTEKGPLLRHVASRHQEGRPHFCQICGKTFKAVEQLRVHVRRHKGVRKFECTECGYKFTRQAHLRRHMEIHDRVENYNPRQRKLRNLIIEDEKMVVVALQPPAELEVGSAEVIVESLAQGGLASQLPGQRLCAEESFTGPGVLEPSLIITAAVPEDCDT

[2] = biological target: T2, Transcriptional regulator Kaiso (Homo sapiens) (UniProt Q86T24); conditions: OCI-Ly1, Compound concentration 1.0 uM
T2 sequence (whole entry): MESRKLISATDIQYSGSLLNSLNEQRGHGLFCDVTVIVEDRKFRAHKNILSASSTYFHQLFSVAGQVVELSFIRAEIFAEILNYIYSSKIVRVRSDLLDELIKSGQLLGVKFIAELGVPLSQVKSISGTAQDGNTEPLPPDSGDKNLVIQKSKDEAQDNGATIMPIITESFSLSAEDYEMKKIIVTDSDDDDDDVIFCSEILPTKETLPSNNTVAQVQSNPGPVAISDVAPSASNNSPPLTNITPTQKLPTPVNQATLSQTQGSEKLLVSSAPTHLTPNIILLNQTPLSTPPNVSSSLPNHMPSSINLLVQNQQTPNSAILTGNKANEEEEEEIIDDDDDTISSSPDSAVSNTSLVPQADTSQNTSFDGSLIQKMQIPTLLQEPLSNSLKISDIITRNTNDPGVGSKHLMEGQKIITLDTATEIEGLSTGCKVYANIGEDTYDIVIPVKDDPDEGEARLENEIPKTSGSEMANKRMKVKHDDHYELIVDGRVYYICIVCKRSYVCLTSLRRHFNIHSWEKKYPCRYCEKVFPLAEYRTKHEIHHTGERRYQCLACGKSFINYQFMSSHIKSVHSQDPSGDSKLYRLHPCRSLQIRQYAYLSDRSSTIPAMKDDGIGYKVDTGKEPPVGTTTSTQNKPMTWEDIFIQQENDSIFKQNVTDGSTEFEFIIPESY

[3] = biological target: Zinc finger and BTB domain-containing protein 14 (Homo sapiens) (UniProt O43829); conditions: SUD4, Compound concentration 1.0 uM
Zinc finger and BTB domain-containing protein 14 (Homo sapiens), sequence (O43829 whole entry, the tested form may be a part): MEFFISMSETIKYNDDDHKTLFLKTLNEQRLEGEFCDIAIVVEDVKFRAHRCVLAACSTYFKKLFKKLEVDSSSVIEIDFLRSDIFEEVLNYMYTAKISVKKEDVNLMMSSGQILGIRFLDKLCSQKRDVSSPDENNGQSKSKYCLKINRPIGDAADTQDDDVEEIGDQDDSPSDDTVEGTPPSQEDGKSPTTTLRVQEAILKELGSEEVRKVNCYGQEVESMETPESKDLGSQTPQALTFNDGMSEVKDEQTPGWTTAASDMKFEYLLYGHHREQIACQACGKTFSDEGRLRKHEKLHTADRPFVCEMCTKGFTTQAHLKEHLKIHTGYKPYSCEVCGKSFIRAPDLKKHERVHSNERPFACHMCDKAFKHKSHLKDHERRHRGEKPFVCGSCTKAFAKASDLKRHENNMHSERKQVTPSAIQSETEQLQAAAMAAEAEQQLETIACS

[4] = biological target: T3, Zinc finger and BTB domain-containing protein 2 (Homo sapiens) (UniProt Q8N680); conditions: SUD4, Compound concentration 1.0 uM
T3 sequence (whole entry): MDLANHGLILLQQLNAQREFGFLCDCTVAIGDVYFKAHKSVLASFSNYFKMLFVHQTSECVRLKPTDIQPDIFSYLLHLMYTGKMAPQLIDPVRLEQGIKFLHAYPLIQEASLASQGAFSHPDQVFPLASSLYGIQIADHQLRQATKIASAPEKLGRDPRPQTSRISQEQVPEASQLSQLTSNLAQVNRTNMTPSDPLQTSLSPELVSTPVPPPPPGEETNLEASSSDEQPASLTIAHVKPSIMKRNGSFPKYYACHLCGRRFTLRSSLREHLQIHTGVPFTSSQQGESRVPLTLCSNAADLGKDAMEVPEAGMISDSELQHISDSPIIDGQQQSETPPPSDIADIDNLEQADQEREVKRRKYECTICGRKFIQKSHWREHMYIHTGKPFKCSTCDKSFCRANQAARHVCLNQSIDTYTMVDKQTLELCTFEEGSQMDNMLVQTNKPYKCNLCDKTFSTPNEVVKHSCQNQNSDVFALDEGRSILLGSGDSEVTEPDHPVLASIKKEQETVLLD

[5] = biological target: Protein archease (Homo sapiens) (UniProt Q8IWT0); conditions: SUD4, Compound concentration 1.0 uM
Protein archease (Homo sapiens), sequence (Q8IWT0 whole entry): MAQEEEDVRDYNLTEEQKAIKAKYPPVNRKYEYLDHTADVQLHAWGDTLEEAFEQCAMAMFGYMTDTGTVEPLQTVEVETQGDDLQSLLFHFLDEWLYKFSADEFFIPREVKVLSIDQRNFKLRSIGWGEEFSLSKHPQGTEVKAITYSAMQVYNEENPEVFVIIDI

[6] = biological target: Serine/threonine-protein kinase 38-like (Homo sapiens) (UniProt Q9Y2H1); test: STK38L SGC Tm panel (DSF); conditions: Compound concentration 20.0 uM
Serine/threonine-protein kinase 38-like (Homo sapiens), sequence (Q9Y2H1 2-464 limits assumed): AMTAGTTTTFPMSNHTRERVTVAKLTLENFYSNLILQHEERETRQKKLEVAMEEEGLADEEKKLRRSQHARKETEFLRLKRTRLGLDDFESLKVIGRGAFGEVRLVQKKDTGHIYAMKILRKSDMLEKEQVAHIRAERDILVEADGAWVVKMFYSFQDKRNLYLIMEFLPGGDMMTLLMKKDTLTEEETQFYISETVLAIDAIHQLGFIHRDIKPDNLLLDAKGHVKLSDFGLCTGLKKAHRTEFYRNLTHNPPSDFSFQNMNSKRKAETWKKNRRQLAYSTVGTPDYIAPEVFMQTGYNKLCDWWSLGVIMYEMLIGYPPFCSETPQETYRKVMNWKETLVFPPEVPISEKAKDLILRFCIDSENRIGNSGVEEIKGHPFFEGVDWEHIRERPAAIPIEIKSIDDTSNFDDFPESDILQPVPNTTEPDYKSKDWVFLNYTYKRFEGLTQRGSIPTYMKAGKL

[7] = biological target: 5-hydroxytryptamine receptor 1B (Homo sapiens) (UniProt P28222); conditions: Compound concentration 10.0 uM
5-hydroxytryptamine receptor 1B (Homo sapiens), sequence (P28222 whole entry): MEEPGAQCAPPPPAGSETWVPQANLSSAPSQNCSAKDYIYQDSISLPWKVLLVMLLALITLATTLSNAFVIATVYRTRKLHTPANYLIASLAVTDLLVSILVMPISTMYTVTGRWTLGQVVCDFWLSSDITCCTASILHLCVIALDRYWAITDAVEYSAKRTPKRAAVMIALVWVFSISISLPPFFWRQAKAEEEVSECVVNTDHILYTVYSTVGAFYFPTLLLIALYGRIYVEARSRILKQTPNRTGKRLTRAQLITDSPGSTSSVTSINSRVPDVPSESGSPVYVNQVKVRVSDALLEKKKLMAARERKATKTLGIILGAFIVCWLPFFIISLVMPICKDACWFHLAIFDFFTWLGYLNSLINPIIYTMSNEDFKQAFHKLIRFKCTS

[8] = biological target: Serine/threonine-protein kinase DCLK1 (Homo sapiens) (UniProt O15075); test: DCAMKL1 SGC Tm panel (DSF); conditions: Compound concentration 20.0 uM
Serine/threonine-protein kinase DCLK1 (Homo sapiens), sequence (O15075 whole entry): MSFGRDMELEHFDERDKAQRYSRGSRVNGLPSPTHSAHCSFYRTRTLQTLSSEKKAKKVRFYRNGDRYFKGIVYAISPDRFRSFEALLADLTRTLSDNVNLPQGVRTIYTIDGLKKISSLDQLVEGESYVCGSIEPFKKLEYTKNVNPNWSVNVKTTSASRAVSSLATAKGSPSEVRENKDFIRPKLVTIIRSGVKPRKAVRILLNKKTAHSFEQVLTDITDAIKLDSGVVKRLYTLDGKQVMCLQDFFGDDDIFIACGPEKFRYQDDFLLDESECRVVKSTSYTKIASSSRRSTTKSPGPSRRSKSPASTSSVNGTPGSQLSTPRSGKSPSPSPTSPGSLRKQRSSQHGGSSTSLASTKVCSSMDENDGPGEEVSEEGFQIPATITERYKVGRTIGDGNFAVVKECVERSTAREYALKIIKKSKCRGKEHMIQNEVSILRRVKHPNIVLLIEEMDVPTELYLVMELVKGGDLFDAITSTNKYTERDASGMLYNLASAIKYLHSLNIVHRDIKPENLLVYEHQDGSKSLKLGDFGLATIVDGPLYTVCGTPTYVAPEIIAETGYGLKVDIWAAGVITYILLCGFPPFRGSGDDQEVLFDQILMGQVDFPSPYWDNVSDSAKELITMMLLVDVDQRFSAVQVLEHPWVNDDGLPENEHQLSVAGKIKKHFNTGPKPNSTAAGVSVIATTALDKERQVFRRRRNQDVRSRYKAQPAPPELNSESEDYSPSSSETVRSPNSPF

[9] = biological target: Cyclin-dependent kinase 16 (Homo sapiens) (UniProt Q00536); test: PCTK1 SGC Tm panel (DSF); conditions: Compound concentration 20.0 uM
Cyclin-dependent kinase 16 (Homo sapiens), sequence (Q00536 whole entry): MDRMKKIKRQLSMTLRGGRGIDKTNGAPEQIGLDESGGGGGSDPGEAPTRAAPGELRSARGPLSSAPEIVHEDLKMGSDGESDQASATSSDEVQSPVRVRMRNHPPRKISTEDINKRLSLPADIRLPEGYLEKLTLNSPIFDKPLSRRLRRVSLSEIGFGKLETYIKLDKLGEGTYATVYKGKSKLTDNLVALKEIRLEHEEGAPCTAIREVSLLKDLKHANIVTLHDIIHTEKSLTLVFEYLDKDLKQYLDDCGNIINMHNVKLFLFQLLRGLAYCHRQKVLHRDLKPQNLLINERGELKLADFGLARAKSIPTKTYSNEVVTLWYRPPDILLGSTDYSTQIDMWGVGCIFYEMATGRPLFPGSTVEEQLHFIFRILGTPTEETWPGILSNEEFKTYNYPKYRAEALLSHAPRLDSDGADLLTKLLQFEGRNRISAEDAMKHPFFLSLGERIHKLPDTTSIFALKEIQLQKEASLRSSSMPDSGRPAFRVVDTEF

[10] = biological target: B-cell lymphoma 6 protein (Homo sapiens, UniProt P41182); conditions: OCI-Ly1, Compound concentration 1.0 uM
[11] = biological target: Zinc finger and BTB domain-containing protein 43 (Homo sapiens) (UniProt O43298); conditions: SUD4, Compound concentration 1.0 uM
[12] = biological target: MAP/microtubule affinity-regulating kinase 3 (Homo sapiens) (UniProt P27448); test: MARK3 SGC Tm panel (DSF); conditions: Compound concentration 20.0 uM
MAP/microtubule affinity-regulating kinase 3 (Homo sapiens), sequence (P27448 whole entry, looked up): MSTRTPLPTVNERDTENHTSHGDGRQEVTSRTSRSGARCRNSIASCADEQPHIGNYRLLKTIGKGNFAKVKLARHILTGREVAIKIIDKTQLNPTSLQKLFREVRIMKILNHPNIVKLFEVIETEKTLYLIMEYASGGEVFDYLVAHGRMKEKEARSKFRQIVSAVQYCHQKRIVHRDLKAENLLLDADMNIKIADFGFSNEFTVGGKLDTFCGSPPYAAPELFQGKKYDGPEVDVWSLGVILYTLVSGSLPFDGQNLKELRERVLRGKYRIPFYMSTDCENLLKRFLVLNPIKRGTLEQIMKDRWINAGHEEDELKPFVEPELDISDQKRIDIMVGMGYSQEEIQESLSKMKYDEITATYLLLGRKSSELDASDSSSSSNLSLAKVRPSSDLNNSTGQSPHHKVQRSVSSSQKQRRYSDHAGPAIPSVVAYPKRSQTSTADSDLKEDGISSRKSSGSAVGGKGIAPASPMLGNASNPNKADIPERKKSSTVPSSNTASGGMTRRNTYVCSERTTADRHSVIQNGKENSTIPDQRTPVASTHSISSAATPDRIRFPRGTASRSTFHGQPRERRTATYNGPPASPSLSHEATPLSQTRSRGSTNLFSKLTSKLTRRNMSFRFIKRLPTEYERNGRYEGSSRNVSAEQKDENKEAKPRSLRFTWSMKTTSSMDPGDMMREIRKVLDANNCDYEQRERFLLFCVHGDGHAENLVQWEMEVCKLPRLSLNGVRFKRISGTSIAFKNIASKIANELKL

[13] = biological target: T4, 5-hydroxytryptamine receptor 1D (Homo sapiens, UniProt P28221); conditions: Compound concentration 10.0 uM
T4 sequence (P28221 whole entry): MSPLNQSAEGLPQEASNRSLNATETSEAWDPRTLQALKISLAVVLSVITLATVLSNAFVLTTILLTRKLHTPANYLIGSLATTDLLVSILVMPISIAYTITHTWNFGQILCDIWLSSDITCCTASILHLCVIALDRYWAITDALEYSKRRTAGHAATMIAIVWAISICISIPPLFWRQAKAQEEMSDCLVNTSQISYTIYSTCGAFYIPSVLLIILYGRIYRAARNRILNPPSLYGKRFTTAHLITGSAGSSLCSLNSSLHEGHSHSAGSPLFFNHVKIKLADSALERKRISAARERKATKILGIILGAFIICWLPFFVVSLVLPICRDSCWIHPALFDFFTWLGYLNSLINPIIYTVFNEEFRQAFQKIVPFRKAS

[14] = biological target: T4, 5-hydroxytryptamine receptor 1D; test: GPCRScan assay: inhibition of 5-HT1D; design: radioligand conc. used [nm] 1.0 – 2.0, parental cells HEKT
[15] = biological target: Serine/threonine-protein kinase 3 (Homo sapiens) (UniProt Q13188); test: STK3 SGC Tm panel (DSF); conditions: Compound concentration 20.0 uM
Serine/threonine-protein kinase 3 (Homo sapiens), sequence (Q13188 whole entry): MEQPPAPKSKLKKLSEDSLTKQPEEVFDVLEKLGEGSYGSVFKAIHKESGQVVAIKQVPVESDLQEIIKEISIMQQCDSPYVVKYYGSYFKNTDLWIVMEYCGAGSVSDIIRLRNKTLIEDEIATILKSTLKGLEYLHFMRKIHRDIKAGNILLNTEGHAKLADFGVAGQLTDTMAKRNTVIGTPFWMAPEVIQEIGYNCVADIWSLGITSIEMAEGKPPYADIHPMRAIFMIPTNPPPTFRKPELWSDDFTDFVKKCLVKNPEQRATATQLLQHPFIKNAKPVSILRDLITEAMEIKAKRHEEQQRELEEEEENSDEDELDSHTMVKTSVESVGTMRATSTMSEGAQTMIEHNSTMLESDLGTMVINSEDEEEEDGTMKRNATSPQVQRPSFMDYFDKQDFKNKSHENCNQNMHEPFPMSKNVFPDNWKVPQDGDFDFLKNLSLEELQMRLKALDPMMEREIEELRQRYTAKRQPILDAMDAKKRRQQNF

[16] = biological target: Serine/threonine-protein kinase RIO1 (Homo sapiens) (UniProt Q9BRS2); test: RIOK1 SGC Tm panel (DSF); conditions: Compound concentration 20.0 uM
Serine/threonine-protein kinase RIO1 (Homo sapiens), sequence (Q9BRS2 whole entry): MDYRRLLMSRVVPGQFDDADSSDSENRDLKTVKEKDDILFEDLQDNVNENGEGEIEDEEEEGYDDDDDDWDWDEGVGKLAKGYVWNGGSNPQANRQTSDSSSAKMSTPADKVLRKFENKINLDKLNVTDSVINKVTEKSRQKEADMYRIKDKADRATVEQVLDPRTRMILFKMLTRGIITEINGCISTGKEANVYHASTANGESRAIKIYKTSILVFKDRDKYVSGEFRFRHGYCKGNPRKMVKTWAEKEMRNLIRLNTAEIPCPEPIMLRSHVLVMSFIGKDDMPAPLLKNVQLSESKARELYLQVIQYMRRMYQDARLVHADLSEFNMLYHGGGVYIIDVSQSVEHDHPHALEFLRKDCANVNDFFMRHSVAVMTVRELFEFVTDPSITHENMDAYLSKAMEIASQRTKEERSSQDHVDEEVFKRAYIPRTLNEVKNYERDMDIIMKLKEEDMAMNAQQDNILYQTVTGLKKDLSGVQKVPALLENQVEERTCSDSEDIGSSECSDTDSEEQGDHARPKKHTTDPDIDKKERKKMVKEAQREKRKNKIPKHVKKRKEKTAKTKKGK

**Q.** Which results are given for `C[C@@H]1CN(c2ncc(Cl)c(Nc3ccc4c(c3)n(CCC(C)(C)O)c(=O)n4C)n2)C[C@H](C)C1(F)F`?
**A.** LogFC [1]: -0.0152; LogFC [2]: -0.0964; LogFC [3]: 0.0827; LogFC [4]: 0.029; LogFC [5]: 0.104; Tm [6]: 47 °C; inhibition [7]: 3.38%; Tm [8]: 42 °C; Tm [9]: 52 °C; LogFC [10]: -2.79; LogFC [11]: 0.0389; Tm [12]: 35 °C; inhibition [13]: 56.5%; Ki [14]: 6.17 µM; Tm [15]: 47 °C; Tm [16]: 40 °C
